Experiments:
[1] = target: T1, purified hCA-IX ECD dimer (Homo sapiens, UniProt Q16790); assay: In vitro rhCA-IX enzyme activity inhibition (4Mu-Ac hydrolysis); assay type: biochemical; details: [inhibitor] vs. normalized response - variable slope
T1 construct: in vitro enzyme activity assay using purified hCA-IX ECD dimer
Description: In vitro rhCA-IX enzyme activity inhibition. In order to examine the functional consequence of the binding of the two sdCA9-VHH antibodies to hCA-IX ECD, antibodies were tested in an in vitro enzyme activity assay using purified hCA-IX ECD dimer and 4-Methylumbelliferyl acetate (4Mu-Ac) as substrate.

[2] = test system: 67NR^hCA-IX derived spheroids; assay: Spheroid growth inhibition, 67NR^hCA-IX; assay type: cell-based, mouse; details: monitored for 8 days; compared with 67NR derived spheroids
Text: Spheroid growth inhibition.

[3] = test system: SKRC59 and SKRC52 cell lines (low and high levels of hCA-IX); assay: Cell binding assay, plate format; assay type: cell-based, human; details: cell line of Table 3 not stated
Description: Cell binding assays were performed using a plate-based format, binding was expressed as the mean fluorescent intensity per cell area. (control IgG (●), cG250 (▪), sdCA9-1-Fc (▴), and sdCA9-2-Fc (▾)). KD values were determined by plotting fluorescent intensity measured for each condition of the sdCA9-Fc antibodies using Graphpad Prism. cG250 full sized antibody (FSA) and isotype matching IgG FSA were used as bench mark and negative control, respectively.
Cell binding. […] These cell lines have been used in the literature for the screening of scFv Abs for binding to hCA-IX (Xu et al. 2010). KD values were determined to be in the low nanomolar range, the clinically used cG250 full sized antibody (FSA) was used as a bench mark. An isotype matching hIgG was used as negative control (FIG. 5).

HillSlope (best fit value) [1] | Compound | spheroid growth, different concentrations [2] | Kd ([3]; cell binding, text: low nanomolar range, read-out: KD (best-fit value, one site specific binding)) [nM] | Bmax (best-fit value, one site specific binding) ([3]; mean fluorescent intensity per cell area)
−0.3305 | NS(=O)(=O)c1ccc(NC(=O)Nc2ccc(F)cc2)cc1 [Clone U104, reference compound] | inhibited spheroid growth in a dose-dependent manner |  | 
 | cG250: clinically used anti-CA-IX full sized antibody (FSA), used as bench mark [reference compound] |  | 1.29 | 574.6
